Structures can show the parent of a compound that is named as a salt.
system: mice; assay: animal or person; type: in vivo; conditions: Mus musculus, read-out: ED50 (dose effective in 50 percent of the treated mice), analgetic effect

Row | Compound | ED50 [mg/kg]
1 | CCC(=O)O[C@](Cc1ccccc1)(c1ccccc1)[C@H](C)CN(C)C [Darvon®, reference compound] | 11.2
2 | CCOC(=O)C1(c2ccccc2)CCN(C)CC1 [Demerol®, reference compound] | 6.4
3 | CCC(=O)N(c1ccccc1OC)C1CCN(CCOc2ccccc2)C1 (stereo not drawn) [Example 4, 1-(2-phenoxethyl)-3-[N-(2-methoxyphenyl)propionamido]pyrrolidine] | 6.8
4 | C=CCN1CCC(N(C(=O)CC)c2ccccc2)C1 (stereo not drawn) [Example 5] | 8
5 | CN1CCC(N(C(=O)c2ccc(Cl)cc2)c2ccccc2)C1 (stereo not drawn) [Example 15, 1-methyl-3-[N-phenyl-(4-chlorobenzamido)]pyrrolidine fumarate] | 5.2
6 | CCC(=O)N(c1ccccc1)C1CCN(CCOc2ccccc2)C1 (stereo not drawn) [Example 17, 1-(2-phenoxyethyl)-3-(N-phenylpropionamido)pyrrolidine hydrochloride] | 14.2
7 | CCC(=O)N(c1ccccc1)C1CCN(CCOc2ccccc2OC)C1 (stereo not drawn) [Example 18, 1-[2-(2-methoxyphenoxy)ethyl]-3-(N-phenylpropionamido)-pyrrolidine] | 3.4
8 | CN1CCC(N(C(=O)COc2ccc(Cl)cc2)c2ccccc2)C1 (stereo not drawn) [Example 31] | 16.5

system: depressant action of tetrabenazine in mice; assay: anti-depressant effect: antagonism of the depressant action of tetrabenazine in mice; type: in vivo; conditions: Mus musculus, read-out: ED50 (dose effective in 50 percent of the treated mice), anti-depressant effect
Method: The anti-depressant effect of some compounds of this invention was assessed by their ability to antagonize the depressant action of tetrabenazine (2-oxo-3-isobutyl-9,10-dimethoxy- 1,2,3,4,6,7 -hexahydro-11bH-benzo[a]quinolizine) in mice [Englehardt et al. J. Med. Chem. 11 (2), 325 (1968)].

Row | Compound | ED50 [mg/kg]
9 | CN1CCC(N(C(=O)c2ccc(Cl)cc2)c2ccccc2)C1 (stereo not drawn) [Example 15, 1-methyl-3-[N-phenyl-(4-chlorobenzamido)]pyrrolidine fumarate] | 0.6
10 | CN1CCC(N(C(=O)c2ccccc2)c2ccccc2)C1 (stereo not drawn) [Example 29] | 1.7
11 | CN1CCC(N(C(=O)c2cccc(C(F)(F)F)c2)c2ccccc2)C1 (stereo not drawn) [Example 36] | 2.8
12 | CN1CCC(N(C(=O)c2cccc(Cl)c2)c2ccccc2)C1 (stereo not drawn) [Example 37] | 2.8
13 | CN1CCC(N(C(=O)c2ccc(F)cc2)c2ccccc2)C1 (stereo not drawn) [Example 38] | 4.8
14 | CN1CCC(N(C(=O)c2ccc(Br)cc2)c2ccccc2)C1 (stereo not drawn) [Example 40] | 15.5
15 | O=C(c1ccccc1)N(c1ccccc1)C1CCN(Cc2ccccc2)C1 (stereo not drawn) [Example 41] | 4.9
16 | O=C(c1ccccc1)N(c1ccccc1)C1CCNC1 (stereo not drawn) [Example 42] | 2.4
17 | CCN1CCC(N(C(=O)c2ccccc2)c2cccc(C(F)(F)F)c2)C1 (stereo not drawn) [Example 44] | 2
18 | CCN1CCC(N(C(=O)c2ccc(Cl)cc2)c2ccc(Cl)cc2)C1 (stereo not drawn) [Example 47] | 4.9
19 | CCN1CCC(N(C(=O)c2ccc(Cl)cc2)c2ccccc2)C1 (stereo not drawn) [Example 48] | 0.6
20 | CN(C)CCCN1c2ccccc2CCc2ccccc21 [Tofranil®, reference compound] | 1.3

same assay, conditions: Mus musculus; mice; antagonism of depressant action of tetrabenazine; read-out: ED50 (dose effective in 50 percent of the treated mice), anti-depressant effect

Row | Compound | ED50 [mg/kg]
21 | CN(C)CCC=C1c2ccccc2CCc2ccccc21 [Elavil®, reference compound] | 1.1

Reference: patent USRE29828E, “1-Substituted-3-amidopyrrolidines” (A. H. Robins Company, Inc., priority 1976, dated 1978)
